From US20230075856A1, “CYCLIC SULFAMIDE COMPOUNDS FOR TREATMENT OF HBV” (Assembly Biosciences, Inc., priority 2018, published 2023) come the findings set out here.

In one experiment the test system is HBV viral load production from HepAD38 cells. As to the kind of experiment: Viral production from HepAD38 cells: viral load in supernatant by qPCR of the HBV core sequence. The experiment is classed as cell-based. To be noted: 5 days incubation, qPCR of supernatant HBV DNA vs DMSO control, read-out: viral load lowering EC50 (Activity). The essentials:
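Viral load was measured by qPCR of the HBV core region in supernatant, quantified against DNA standards and compared with DMSO wells. Cells (50,000/well, tetracycline withdrawn, 2% FBS) received compound from 10 μM final for 5 days; EC50 from four-parameter nonlinear regression.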
Turning to “N3-(3-chloro-4-fluoro-phenyl)-2-methyl-1,1-(trifluoromethyl)phenyl]ethyl]-1,2,6-thiadiazinane-3,5-dicarboxamide [493-S-ISOMER-B]”, the EC50 lay within 100 to 10000 nM.

For the molecule `Cc1c(CNC(=O)C2CC(C(=O)Nc3ccc(F)c(Cl)c3)N(C)S(=O)(=O)N2)noc1-c1ccccc1` (single isomer, unassigned) [1150-ISOMER-B, N3-(3-chloro-4-fluoro-phenyl)-2-methyl-N5-[(4-methyl-5-phenyl-isoxazol-3-yl)methyl]-1,1-dioxo-1,2,6-thiadiazinane-3,5-dicarboxamide], the EC50 lay in the range of 100 to 10000 nM.

Turning to `Cc1c(CNC(=O)C2CC(C(=O)Nc3ccc(F)c(Cl)c3)N(C)S(=O)(=O)N2)nnn1-c1ccccc1` (single isomer, unassigned; isomer-a) [1148-ISOMER-A, N3-(3-chloro-4-fluoro-phenyl)-2-methyl-N5-[(5-methyl-1-phenyl-triazol-4-yl)methyl]-1,1-dioxo-1,2,6-thiadiazinane-3,5-dicarboxamide], the EC50 fell in the range of 50 to 100 nM.

In the case of `Cc1nc(-c2ccccc2)sc1CNC(=O)C1CC(C(=O)Nc2ccc(F)c(C#N)c2)N(C)S(=O)(=O)N1` (single isomer, unassigned) [1136-ISOMER-B, N3-(3-cyano-4-fluoro-phenyl)-2-methyl-N5-[(4-methyl-2-phenyl-thiazol-5-yl)methyl]-1,1-dioxo-1,2,6-thiadiazinane-3,5-dicarboxamide], the EC50 was in the range of 100 to 10000 nM.

Take `COc1cccc(CNC(=O)C2CC(C(=O)Nc3ccc(F)c(Cl)c3)N(C)S(=O)(=O)N2)c1` (single isomer, unassigned) [Compound 721-ISOMER-B, N3-(3-chloro-4-fluoro-phenyl)-N5-[(3-methoxyphenyl)methyl]-2-methyl-1,1-dioxo-1,2,6-thiadiazinane-3,5-dicarboxamide]: the EC50 was 100 to 10000 nM.

The experiment is the same for the next values; noted with them: Hepatitis B virus, HePAD38, 120 h, 5 days incubation, qPCR of supernatant HBV DNA vs DMSO control, read-out: viral load lowering EC50 (Activity).
Take `C[C@H](NC(=O)C1CC(C(=O)Nc2ccc(F)c(Cl)c2)N(C)S(=O)(=O)N1)c1ccc(C(F)(F)F)cc1` (single isomer, unassigned) [493-S-ISOMER-A]: the EC50 is < 50 nM.

`Cc1nc(Cl)sc1CNC(=O)C1CC(C(=O)Nc2ccc(F)c(Cl)c2)N(C)S(=O)(=O)N1` (stereo not shown) [Compound 1031]: the EC50 was < 50 nM.

For `Cc1nc(-c2ccccc2F)sc1[C@H](NC(=O)C1CC(C(=O)Nc2ccc(F)c(Cl)c2)N(C)S(=O)(=O)N1)c1ccccc1` (single isomer, unassigned) [1101-ISOMER-C], the EC50 fell in the range of 100 to 10000 nM.

Turning to `CC(C)OC(=O)N1CCC(NC(=O)C2CC(C(=O)Nc3ccc(F)c(Cl)c3)N(C)S(=O)(=O)N2)CC1` (stereo not shown) [Compound 766], the EC50 is < 50 nM.

On to `CC(NC(=O)C1CC(C(=O)Nc2ccc(F)c(Cl)c2)N(C)S(=O)(=O)N1)c1ccc(F)cc1` (stereo not shown) [Compound 493], for which the EC50 is < 50 nM.

For the molecule `Cc1nc(-c2ccccc2Cl)sc1[C@H](NC(=O)C1CC(C(=O)Nc2ccc(F)c(Cl)c2)N(C)S(=O)(=O)N1)c1ccccc1` (single isomer, unassigned) [1100-ISOMER-A], the EC50 was < 50 nM.

Regarding `CN1C(C(=O)Nc2ccc(F)c(Cl)c2)CC(C(=O)N[C@@H](c2ccccc2)c2cnc(Cl)s2)NS1(=O)=O` (single isomer, unassigned) [1066-ISOMER-D], the EC50 lay within 100 to 10000 nM.

Regarding `CN1C(C(=O)Nc2ccc(F)c(Cl)c2)CC(C(=O)NCc2cnc(-c3ccc(O)cc3Cl)s2)NS1(=O)=O` (stereo not shown) [Compound 1028], the EC50 was < 50 nM.

Take `Cc1nc(-c2ccc(F)cc2)sc1CNC(=O)C1CC(C(=O)Nc2ccc(F)c(Cl)c2)N(C)S(=O)(=O)N1` (single isomer, unassigned) [1056-ISOMER-A, N3-(3-chloro-4-fluoro-phenyl)-N5-[[2-(4-fluorophenyl)-4-methyl-thiazol-5-yl]methyl]-2-methyl-1,1-dioxo-1,2,6-thiadiazinane-3,5-dicarboxamide]: the EC50 lay in the range of 100 to 10000 nM.

Turning to `C[C@@H](NC(=O)C1CC(C(=O)Nc2ccc(F)c(Cl)c2)N(C)S(=O)(=O)N1)c1ccccc1` (stereo partly shown) [Compound 719], the EC50 was < 50 nM.

With `CCN1C(C(=O)Nc2ccc(F)c(Cl)c2)CC(C(=O)NC2CCN(C(=O)OC)CC2)NS1(=O)=O` (stereo not shown) [Compound 890], the EC50 is < 50 nM.

Turning to `CN1C(C(=O)Nc2ccc(F)c(Cl)c2)CC(C(=O)NC2CCN(C(=O)OCc3ccccc3)CC2)NS1(=O)=O` (stereo not shown) [Compound 852], the EC50 lay in the range of 100 to 10000 nM.

On to `COC(=O)N1CCC(NC(=O)C2CC(C(=O)Nc3ccc(F)c(Cl)c3)N(C)S(=O)(=O)N2)CC1` (single isomer, unassigned) [Compound 477-ISOMER-A, methyl 4-[[5-[(3-chloro-4-fluoro-phenyl)carbamoyl]-6-methyl-1,1-dioxo-1,2,6-thiadiazinane-3-carbonyl]amino]piperidine-1-carboxylate], for which the EC50 was < 50 nM.

Turning to `Cc1c(CNC(=O)C2CC(C(=O)Nc3ccc(F)c(Cl)c3)N(C)S(=O)(=O)N2)nnn1-c1ccccc1` (stereo not shown) [Compound 1148], the EC50 lay in the range of 100 to 10000 nM.

In the case of `C[C@@H](NC(=O)C1CC(C(=O)Nc2ccc(F)c(Cl)c2)N(C)S(=O)(=O)N1)c1ccccc1` (single isomer, unassigned) [Compound 719-ISOMER-A], the EC50 was < 50 nM.

For `CC(NC(=O)C1CC(C(=O)Nc2ccc(F)c(Cl)c2)N(C)S(=O)(=O)N1)c1csc(-c2ccccc2Cl)n1` (stereo not shown) [Compound 1029], the EC50 was in the range of 100 to 10000 nM.

Consider `Cc1nc(-c2ccccc2Cl)sc1C(NC(=O)C1CC(C(=O)Nc2ccc(F)c(Cl)c2)N(C)S(=O)(=O)N1)c1ccccc1` (stereo not shown) [Compound 1100], for which the EC50 fell in the range of 50 to 100 nM.

As for `CC(NC(=O)C1CC(C(=O)Nc2ccc(F)c(Cl)c2)N(C)S(=O)(=O)N1)c1csc(Cl)n1` (stereo not shown) [Compound 1007], the EC50 is < 50 nM.

On to `CN1C(C(=O)Nc2ccc(F)c(Cl)c2)CC(C(=O)NCc2ccccc2C(F)(F)F)NS1(=O)=O` (stereo not shown) [Compound 818], for which the EC50 was < 50 nM.

For the molecule `CN1C(C(=O)Nc2ccc(F)c(Cl)c2)CC(C(=O)NCc2csc(Cl)n2)NS1(=O)=O` (stereo not shown) [Compound 1006], the EC50 is 50 to 100 nM.

`CN1C(C(=O)Nc2ccc(F)c(Cl)c2)CC(C(=O)Nc2ccc3c(c2)OCCO3)NS1(=O)=O` (stereo not shown) [Compound 734]: the EC50 was 50 to 100 nM.

Take `Cc1nc(Cl)sc1C(NC(=O)C1CC(C(=O)Nc2ccc(F)c(Cl)c2)N(C)S(=O)(=O)N1)c1ccccc1` (stereo not shown) [Compound 1098]: the EC50 is < 50 nM.

Turning to `CN1C(C(=O)Nc2ccc(F)c(Cl)c2)CC(C(=O)NCc2ncc(-c3ccc(F)cc3)s2)NS1(=O)=O` (single isomer, unassigned) [1153-ISOMER-A, N3-(3-chloro-4-fluoro-phenyl)-N5-[[5-(4-fluorophenyl)thiazol-2-yl]methyl]-2-methyl-1,1-dioxo-1,2,6-thiadiazinane-3,5-dicarboxamide], the EC50 is < 50 nM.

Turning to `COCCN1C(C(=O)Nc2ccc(F)c(Cl)c2)CC(C(=O)NC2CCN(C(=O)OC)CC2)NS1(=O)=O` (single isomer, unassigned) [Compound 896-ISOMER-A, methyl 4-[[5-[(3-chloro-4-fluoro-phenyl)carbamoyl]-6-(2-methoxyethyl)-1,1-dioxo-1,2,6-thiadiazinane-3-carbonyl]amino]piperidine-1-carboxylate], the EC50 was 50 to 100 nM.

Take `Cc1nc(CNC(=O)C2CC(C(=O)Nc3ccc(F)c(Cl)c3)N(C)S(=O)(=O)N2)sc1-c1ccccc1F` (stereo not shown) [Compound 1085]: the EC50 was < 50 nM.

Regarding `CN1C(C(=O)Nc2ccc(F)c(Cl)c2)CC(C(=O)NCc2ncc(-c3ccc(O)cc3)s2)NS1(=O)=O` (stereo not shown) [Compound 1009], the EC50 was < 50 nM.
